We go through two compounds from patent publication US20120239131A1, “METHODS AND APPARATUS FOR TREATMENT OF ANEURYSMAL TISSUE” (Medtronic Vascular, Inc., priority 2011, published 2012).

Holding throughout (experiment): Aortic mural gene expression, RT-PCR (TLDA)
Type in all cases: in vivo, ApoE−/− mice
Conditions in all cases: fold change over ApoE−/− control; aorta, 28 days Ang II infusion

One assay deals with CSF1.
For another assay, the system named is NFKb1.
The subject of another assay is Fibronectin -1. The method in brief: (§1)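 Steps: 1 wk drug pretreatment (statin, doxycycline, ARBs, or water) → AngII pump, 1000 ng·kg^−1·min^−1 s.c., 28 d, treatment continued → aortae harvested at sacrifice → RNA, cDNA → TLDA TaqMan qPCR, 40 cycles, read at 60° C → RQ vs pooled ApoE−/− control.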
A further assay deals with CXCR4. In a few lines:
as §1

A further assay concerns TIMP2. The method in brief: as §1
Another assay deals with MMP-12. In a few lines: as §1
The next assay has as its system Rac2. The method in brief: as §1
The next assay relates to Runx3. The method in brief: as §1
For the next assay, the system named is CCR5. The method in brief:
as §1

A further assay concerns HMOX 1. The method in brief:
as §1

The next assay relates to Cathepsin S. In a few lines:
as §1

The next assay relates to CCL2. In a few lines: as §1
The next assay deals with ITGAL. In a few lines: as §1

Method for CSF1: (§2) AngII (1000 ng·kg^−1 of body weight·min^−1) was infused subcutaneously via Alzet mini-osmotic pumps for 28 days. All mice were maintained on the medicated chow (MI & MT) or medicated drinking water (MF & MD) treatments which were delivered daily for a total of 28 days following pump implantation.
(§3) All mice were sacrificed 28 days after pump implantation. Aortae were harvested and subjected to either histological analysis (Elastic Masson trichome, MAC2, CD31 and TUNEL staining) and analysis of mural gene expression.
(§4) Total RNA was extracted from homogenized aortas using the Qiazol lysis reagent and RNeasy Lipid Tissue Mini kit. DNAse treatment was included in the procedure. RNA concentration was determined utilizing the Quant iT RNA assay kit. Complimentary deoxyribonucleic acid (cDNA) was synthesized from 1 μg RNA using High reverse cDNA transcription kit. Briefly the reaction tubes containing RNA, reverse transcriptase, buffer, RNAse inhibitor, and nuclease free water were incubated at 25° C. for 10 minutes to allow annealing. […] The cDNA samples were cooled at 4° C. and stored at −80° C. until further use.
(§5) Real time PCR was performed using a 384-well Taqman low density array (TLDA) card. Each sample specific PCR mix contained 50 ng of total RNA converted to cDNA. The PCR reaction for Taqman assays contained 50 μl Master Mix (Taqman Universal PCR Master Mix,) and 50 ul of cDNA and RNAase free water. Assays were performed to include appropriate controls (no template control). The RT-PCR protocol included an initial step of 50° C. […] Fluorescence data was collected at 60° C. Fluorescence was quantified with ABI PRISM 7900HT Sequence Detection System. To verify amplification of a specific target cDNA, data generated was analyzed using SDS 2.2.3 software (Sequence Detection System Software, Applied Biosystems). […] For relative quantification (RQ), pooled ApoE−/− control was used as the calibrator (with expression equal to 1).
Method for NFKb1: as §2, §3, §4, §5

For the compound `CCCc1nc2c(C)cc(-c3nc4ccccc4n3C)cc2n1Cc1ccc(-c2ccccc2C(=O)O)cc1` [Telmisartan], the CSF1 expression result with CSF1 is reported as “− (0 to 1 = −)”. Also, the NFKb1 expression entry in the assay with NFKb1 is listed as “− (0 to 1 = −)”. Further, the “Fibronectin -1 expression” value in the assay with Fibronectin -1 is reported as “− (0 to 1 = −)”. Moreover, the CXCR4 expression entry with CXCR4 is listed as “+++ (3.1 to 10 = +++)”. Besides, in the assay on TIMP2, the TIMP2 expression result is reported as “− (0 to 1 = −)”. The MMP-12 expression result with MMP-12 was “− (0 to 1 = −)”. Besides, the Rac2 expression result in the assay with Rac2 is “− (0 to 1 = −)”. For the same compound, the Runx3 expression result in the assay on Runx3 is “− (0 to 1 = −)”. Besides, the CCR5 expression entry with CCR5 is listed as “− (0 to 1 = −)”. The “HMOX 1 expression” value in the assay on HMOX 1 was “− (0 to 1 = −)”. In addition, in the assay on Cathepsin S, the “Cathepsin S expression” value is recorded as “− (0 to 1 = −)”. Moreover, in the assay on CCL2, the CCL2 expression result is “− (0 to 1 = −)”.

For `CC(C)n1c(/C=C/C(O)CC(O)CC(=O)O)c(-c2ccc(F)cc2)c2ccccc21` (stereo not shown) [Fluvastatin], the CSF1 expression entry in the assay with CSF1 was “− (0 to 1 = −)”. The NFKb1 expression entry in the assay with NFKb1 is reported as “− (0 to 1 = −)”. Besides, the “Fibronectin -1 expression” value with Fibronectin -1 was “− (0 to 1 = −)”. In addition, the CXCR4 expression result in the assay on CXCR4 is “+++ (3.1 to 10 = +++)”. In the assay on TIMP2, the TIMP2 expression entry was “− (0 to 1 = −)”. In the assay with MMP-12, the MMP-12 expression result is listed as “+++ (3.1 to 10 = +++)”. Also, the Rac2 expression entry in the assay with Rac2 is “+ (1.1 to 1.5 = +)”. Moreover, the Runx3 expression result in the assay on Runx3 is listed as “++ (1.51 to 3 = ++)”. In addition, the CCR5 expression entry with CCR5 is given as “+++ (3.1 to 10 = +++)”. Moreover, the “HMOX 1 expression” value in the assay on HMOX 1 is on record as “+++ (3.1 to 10 = +++)”. In addition, the “Cathepsin S expression” value in the assay with Cathepsin S is reported as “+++ (3.1 to 10 = +++)”. In the assay on ITGAL, the ITGAL expression entry is listed as “++ (1.51 to 3 = ++)”. In addition, the CCL2 expression entry in the assay on CCL2 was “++ (1.51 to 3 = ++)”.
